{
  "source": "patent US3937838A",
  "about": "“Orally active bronchospasmolytic compounds and their preparation” (priority 1966, dated 1976)",
  "key": {"adrenergic receptors": {"system": "adrenergic receptors", "details": "cited from earlier work"}, "guinea pig trachea": {"system": "guinea pig trachea", "test": "Bronchospasmolytic effect in vitro (Example 13)", "details": "per se", "protocol": "The trachea from a guinea pig was dissected out and spirally cut. It was mounted in a water-jacketed bath (37°C.) in Krebs solution and aerated with oxygen (95%) and carbon dioxide (5%). Pilocarpine (2 μg/ml) was added. The load was adjusted to about 2 g and relaxations in the trachea were recorded by means of a Grass force displacement transducer and a Grass polygraph model 5 (see Example 5 above). The cumulative method was used (-)-Epinephrine was used as reference. The comparisons presented in Table 7 are based on ED50 -values."}, "[1]": {"system": "bronchoconstriction by histamine aerosol", "test": "Protecting effect against histamine aerosol in guinea pigs (Example 15)", "type": "in vivo, guinea pig", "details": "Cavia porcellus, read-out: ED50 (protecting 50 percent of the animals for more than 4 minutes)", "description": "Male guinea pigs (200--300 g) were used. Bronchoconstriction was produced by letting the animals inhale a histamine aerosol."}, "[2]": {"system": "isolated guinea pig heart", "test": "Effect on isolated heart from guinea pig, Langendorff (Example 16)", "details": "per se", "protocol": "The isolated guinea pig heart was perfused according to Langendorff. The method used is described by Anden et al. [Acta Pharmacol. et Toxicol. 21, 247, (1964)]. Contractions in the heart were recorded by a force displacement transducer and a Grass polygraph model 5. The recovery of the heart was tested with (-) epinephrine between every dose of the substance tested. Terbutaline was used as reference."}, "mice": {"system": "mice", "test": "Toxicity study in mice (Example 18)", "type": "in vivo", "details": "mouse, in vivo, po", "protocol": "(§1) The toxicity was studied in mice (NMRI, male, 18-28 g) 24 hours after i.v. and oral administration. The animals were observed during five days. No further deaths occurred."}, "[3]": {"test": "Toxicity study in mice (Example 18)", "type": "in vivo", "details": "mouse, in vivo, read-out: LD 50 + Standard error", "protocol": "as §1"}, "isolated rabbit heart": {"system": "isolated rabbit heart", "test": "Effect on isolated heart, Langendorff preparation (Example 5d)", "details": "injection; FIG. 5", "protocol": "The effect of the compound of the present invention was also studied on isolated rabbit heart (Langendorff preparation) the method used as described by Anden et al. (Acta Pharmacol. et Toxicol., 21 (1964) page 247). In this procedure, the isolated heart is mounted in a Krebs solution and the test compound is injected into it. Measurements are continuously recorded of the rate and force of contraction.\nThe tests using epinephrine establish a standard of comparison to evaluate subsequent test compounds in the same preparation."}, "[4]": {"system": "right auricle from the guinea pig", "test": "Dual preparation test in vitro, effect on auricle (Example 5c)", "details": "slow infusion, FIGS. 2-4; for cardiac stimulation in relation to bronchodilator effect: both preparations in same bath", "description": "[This procedure is more fully described below in Example 5 (b)].\nFIG. 2 illustrates the effect of epinephrine (EPE) and terbutaline on spirally cut trachea and right auricle from the guinea pig. Both preparations are dissected out from the same animal and run under identical experimental conditions;\nBoth preparations are dissected out from the same animal, and run under identical experimental conditions;\nBoth preparations are dissected out from the same animal and run under identical experimental conditions;\nThe relation between the heart stimulatory effect and bronchodilator effect was studied in vitro on auricle-trachea-preparation from the guinea pig in order to compare the effect on the heart and the effect on the bronchial muscle under identical experimental conditions. Both spontaneously bearing auricle and spirally-cut trachea were placed in the same bath in Krebs solution. Both preparations were taken from the same animal.\nThe compound to be tested was slowly infused into the bathing solution and the tension was measured for each of the auricle and trachael preparations.\nIn carrying out this dual preparation test, epinephrine was used as a reference. […] Infusion of epinephrine was made over a period of ten minutes. After washing and recovery, the test solution was infused in the same manner and the effect of the test compound was compared with the effect of epinephrine.\nReferring more specifically to FIG. 2, the upper portion of each chart thereof represents the tension continuously recorded of the auricle preparation (shaded area 1 for the effect of epinephrine on the auricle, ref. no. 2 for the effect of terbutaline infused at a rate of 0.2 μg/min on the auricle, and ref. no. 3 for the effect of terbutaline infused at a rate of 0.375μg/min on the auricle)."}, "[5]": {"system": "sphincter of Oddi (choledochoduodenal sphincter)", "test": "Effect on sphincter of Oddi (Example 5e)", "type": "in vivo, cat", "details": "anesthetized cats; for duodenal pressure / motility / heart rate: concurrent with sphincter effect; for common bile duct pressure / sphincter relaxation: i.v., 1 μg/kg terbutaline in FIG. 7, FIG. 8", "protocol": "The effect of terbutaline on the choledochoduodenal sphincter of young, healthy cats was studied. Young animals weighing at least 2.0 kg were used. After being deprived of food but not water for 24 hours, they were anesthetized with pentobarbitol (40 mg/kg i.p.). The terminal portion of a common bile duct was isolated and cannulated toward the duodenum. The hepatic part of the bile duct was drained to prevent distention. The pressure was continuously recorded by the open tip technique. Details of the experimental set up have been published by Liedberg and Halabi [Acta. Chir. Scand. 136 (1970) page 208.] Heart rate was recorded on all experiments and blood pressure by arterial cannulation in some.\nReferring to the upper curve of FIGS. 7 and 8, the heart rate is continuously recorded. Concurrent records are made in the middle curve and lower curve of the pressures measured respectively in the common bile duct and in the lower duodenum.\nAs a control in this test, the animal was also treated with 0.5 international units per kg of cholecystokinin (CCK).\nIn a second test of the effect of terbutaline and isoprenaline on the sphincter (see FIG. 8), the duodenal motility was measured without being affected by CCK."}, "bronchial asthma": {"system": "bronchial asthma", "test": "Clinical study in asthmatic patients (Example 6)", "type": "in vivo, human", "protocol": "All the patients were hospitalized for severe bronchial asthma. Before the patients were selected for the trial, spirometry was performed before and after isoprenaline inhalations to make sure that their obstruction was at least partly reversible by bronchodilating drugs. The tests were performed when the patients were in a relatively steady state of moderate asthmatic discomfort. Every morning during the trial control measurements of forced expiratory volume in one second (FEV1.0) were made. These values had to be less than 70% of the predicted normal value taking in consideration sex, age and heights. All the patients were under treatment of different drugs for their asthma. Other bronchodilating drugs were withdrawn at least 6 hours before the start of the measurements. Most of the patients were treated with steroids, antibiotics and expectorants before the start of the trial. This regimen was continued unchanged during the trial period.\nTwenty-four took part in the study, 10 male and 14 female. Average age was 51 years (range 15-71 years), mean body weight 64 kg (range 44-88 kg.) and height 166 cm (range 150-187 cm).\nThe trial was performed as a double blind study during three consecutive days with the patients serving as their own control. […] The order of treatment was randomized according to the principle of Latin squares.\nLung function tests were made immediately before the administration of the tablets and after 1, 2, 3, 5 and 7 hours. FEV1.0 was measured using a Vitalograph spirometer. The highest value of three measurements on each occasion was used in the calculations. All the patients had been trained to perform the tests the day before the start of the trial. After 3 and 7 hours, the patients were questioned for side effects. The same, specially trained, nurse assisted throughout the whole investigation.\nThe \"Student's\" t-test was used for statistical evaluation of the results. The degree of significance for the differences is given as almost significant (p<0.05^x) significant (p<0.01^xx) and highly significant (p<0.001^xxx)."}},
  "note": "Entries after “also recorded” stand apart in the source; their conditions may differ. Like-named read-outs stand apart in the source and are kept apart here.",
  "data": [
    {"molecule": "CNC(C)C(O)c1ccccc1", "note": "(stereo not shown) [Ephedrine, 1-phenyl-2-(methylamino)propanol]", "values": [
      {"measurement": "cardiovascular side effects", "setting": "adrenergic receptors; background", "result": "palpitations and tachycardia"},
      {"measurement": "CNS side effects", "setting": "adrenergic receptors; background, oral", "result": "anxiety and sleeping disturbances"}
    ]},
    {"molecule": "CC(C)(C)NCC(O)c1cc(OC(=O)C(C)(C)C)cc(OC(=O)C(C)(C)C)c1", "note": "(stereo not shown) [KWD2085]", "values": [
      {"measurement": "bronchospasmolytic effect in vitro relative to terbutaline", "setting": "guinea pig trachea", "result": "weaker bronchospasmolytic effect in vitro than terbutaline"},
      {"measurement": "ED50", "setting": "[1]; 0.5 h, oral, 30 minutes before histamine", "result": 0.24, "unit": "mg/kg"},
      {"measurement": "ED50", "setting": "[1]; ip, 0.25 h, i.p., 15 minutes before histamine", "result": 0.13, "unit": "mg/kg"},
      {"measurement": "direct heart effect relative to terbutaline", "setting": "[2]", "result": "much less direct heart effect"},
      {"measurement": "oral absorption in comparison with terbutaline", "setting": "mice", "result": "improved oral absorption in comparison with terbutaline"},
      {"measurement": "LD50 at 24 h", "setting": "[3]; iv", "result": "23 ± 2", "unit": "mg/kg"},
      {"measurement": "LD50 at 24 h", "setting": "[3]; po", "result": 2200, "unit": "mg/kg"}
    ]},
    {"molecule": "CNCC(O)c1ccc(O)c(O)c1", "note": "(stereo not shown) [epinephrine, 1-(3',4'-dihydroxyphenyl)-2-(methylamino)-ethanol]", "values": [
      {"measurement": "effect on rate and force of isolated heart", "setting": "isolated rabbit heart", "result": "increase in the heart rate; also recorded: increase in the force of contraction; also recorded: readily observable"},
      {"measurement": "cardiac stimulation in relation to bronchodilator effect", "setting": "[4]", "result": "affecting both the auricle and tracheal preparations over the concentration range tested"},
      {"measurement": "cardiac stimulation in relation to bronchodilator effect", "setting": "[4]; listed as Epinephrine", "result": "bronchodilation and heart muscle stimulation in the same concentration range"},
      {"measurement": "effect on auricle (tension)", "setting": "[4]; 0.375 μg/min where stated", "result": "nearly doubled the maximum tension of the auricle"},
      {"measurement": "adrenergic receptors stimulated", "setting": "adrenergic receptors; background", "result": "stimulates α- and β1 - as well as β2 -receptors"},
      {"measurement": "cardiovascular side effects", "setting": "adrenergic receptors; background", "result": "tachycardia, increased cardiac output and sometimes an increase in blood pressure"},
      {"measurement": "duration of bronchodilator activity", "setting": "adrenergic receptors; background", "result": "relatively short-lived"}
    ]},
    {"molecule": "CC(C)NCC(O)c1ccc(O)c(O)c1", "note": "(stereo not shown) [isoprenaline, 1-(3',4'-dihydroxyphenyl)-2-(isopropylamino)-ethanol, reference compound]", "values": [
      {"measurement": "cardiac stimulation in relation to bronchodilator effect", "setting": "[4]", "result": "strong cardiac stimulants in relation to their bronchodilator effect"},
      {"measurement": "adrenergic receptors stimulated", "setting": "adrenergic receptors; background", "result": "stimulates β1 and β2 -receptors equally"},
      {"measurement": "duration of bronchodilator activity", "setting": "adrenergic receptors; background", "result": "relatively short-lived"},
      {"measurement": "cardiovascular side effects", "setting": "adrenergic receptors", "result": "cardiovascular stimulation, especially tachycardia"},
      {"measurement": "duodenal pressure / motility", "setting": "[5]", "result": "inhibited duodenal motility"},
      {"measurement": "heart rate", "setting": "[5]", "result": "marked tachycardia"},
      {"measurement": "duodenal pressure / motility", "setting": "[5]; listed as Isoprenaline", "result": "differed markedly from terbutaline in its effect on heart rate and intestinal activity"},
      {"measurement": "heart rate", "setting": "[5]; listed as Isoprenaline", "result": "differed markedly from terbutaline in its effect on heart rate and intestinal activity"},
      {"measurement": "common bile duct pressure / sphincter relaxation", "setting": "[5]", "result": "reduces common bile duct pressure"}
    ]},
    {"molecule": "CC(C)NCC(O)c1cc(O)cc(O)c1", "note": "(stereo not shown) [orciprenaline, 1-(3',5'-dihydroxyphenyl)-2-(isopropylamino)-ethanol, reference compound]", "values": [
      {"measurement": "cardiac stimulation in relation to bronchodilator effect", "setting": "[4]", "result": "strong cardiac stimulants in relation to their bronchodilator effect"},
      {"measurement": "time of maximal response (FEV1.0)", "setting": "bronchial asthma; oral single dose", "result": 2, "unit": "h"},
      {"measurement": "increase of FEV1.0", "setting": "bronchial asthma; oral, terbutaline 5.0 mg, orciprenaline 20 mg, FIG. 9", "result": "clearcut increase of the spirometric values"},
      {"measurement": "bronchodilator potency", "setting": "adrenergic receptors; background, versus previously used bronchodilators", "result": "less potency than previously used bronchodilators"}
    ]},
    {"molecule": "cholecystokinin [reference compound]", "values": [
      {"measurement": "duodenal pressure / motility", "setting": "[5]", "result": "markedly stimulated the duodenum"},
      {"measurement": "common bile duct pressure / sphincter relaxation", "setting": "[5]", "result": "relaxed the sphincter"}
    ]}
  ]
}
